The target of this assay is T1, human TLR7 (Homo sapiens, UniProt Q9NYK1).
T1 sequence (Q9NYK1 27-1049): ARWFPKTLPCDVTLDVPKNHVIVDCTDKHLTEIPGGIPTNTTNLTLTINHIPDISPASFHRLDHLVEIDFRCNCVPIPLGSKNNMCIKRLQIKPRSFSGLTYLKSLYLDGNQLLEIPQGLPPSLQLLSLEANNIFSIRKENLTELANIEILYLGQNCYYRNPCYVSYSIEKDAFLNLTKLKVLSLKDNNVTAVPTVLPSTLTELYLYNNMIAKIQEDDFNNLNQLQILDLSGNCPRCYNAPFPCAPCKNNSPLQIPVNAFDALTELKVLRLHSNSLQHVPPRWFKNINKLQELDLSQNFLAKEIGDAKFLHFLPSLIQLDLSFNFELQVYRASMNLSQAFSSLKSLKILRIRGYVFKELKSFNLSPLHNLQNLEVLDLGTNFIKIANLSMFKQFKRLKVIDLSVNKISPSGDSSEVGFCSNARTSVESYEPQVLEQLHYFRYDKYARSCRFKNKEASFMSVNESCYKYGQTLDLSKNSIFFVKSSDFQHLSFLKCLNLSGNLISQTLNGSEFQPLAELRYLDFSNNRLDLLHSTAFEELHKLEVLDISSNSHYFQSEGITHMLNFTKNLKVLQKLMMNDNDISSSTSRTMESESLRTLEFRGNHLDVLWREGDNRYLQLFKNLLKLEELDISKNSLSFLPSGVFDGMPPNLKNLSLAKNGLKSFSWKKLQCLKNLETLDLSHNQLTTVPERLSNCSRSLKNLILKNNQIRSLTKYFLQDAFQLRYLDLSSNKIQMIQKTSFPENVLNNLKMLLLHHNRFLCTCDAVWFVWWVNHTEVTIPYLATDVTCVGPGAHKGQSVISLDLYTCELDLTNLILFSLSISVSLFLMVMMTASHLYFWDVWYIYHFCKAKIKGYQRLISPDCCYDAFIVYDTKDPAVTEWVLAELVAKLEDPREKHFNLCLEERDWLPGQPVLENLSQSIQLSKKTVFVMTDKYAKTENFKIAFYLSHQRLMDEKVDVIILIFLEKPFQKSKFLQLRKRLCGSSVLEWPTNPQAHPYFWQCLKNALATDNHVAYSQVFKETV
The assay is described as follows: HEK293-Blue-hTLR-7 cells assay (SEAP reporter, R848 stimulation). The class given is cell-based. As to the method: The following tests were carried out in order to determine the activity of the compounds of formula (I) in HEK293-Blue-hTLR-7/8/9 cells assay.
HEK293-Blue-hTLR-7 Cells Assay:
A stable HEK293-Blue-hTLR-7 cell line was purchased from InvivoGen (Cat. #: hkb-htlr7, San Diego, California, USA). These cells were originally designed for studying the stimulation of human TLR7 by monitoring the activation of NF-κB. A SEAP (secreted embryonic alkaline phosphatase) reporter gene was placed under the control of the IFN-β minimal promoter fused to five NF-κB and AP-1-binding sites. The SEAP was induced by activating NF-κB and AP-1 via stimulating HEK-Blue hTLR7 cells with TLR7 ligands. Therefore the reporter expression was declined by TLR7 antagonist under the stimulation of a ligand, such as R848 (Resiquimod), for incubation of 20 hrs. The cell culture supernatant SEAP reporter activity was determined using QUANTI-Blue™ kit (Cat. #: rep-qb1, Invivogen, San Diego, Ca, USA) at a wavelength of 640 nm, a detection medium that turns purple or blue in the presence of alkaline phosphatase.
HEK293-Blue-hTLR7 cells were incubated at a density of 250,000˜450,000 cells/mL in a volume of 170 μL in a 96-well plate in Dulbecco's Modified Eagle's medium (DMEM) containing 4.5 g/L glucose, 50 U/mL penicillin, […], […], 2 mM L-glutamine, 10% (v/v) heat-inactivated fetal bovine serum with addition of 20 μL test compound in a serial dilution in the presence of final DMSO at 1% and 10 μL of 20 uM R848 in above DMEM, perform incubation under 37° C. in a CO2 incubator for 20 hrs. Then 20 μL of the supernatant from each well was incubated with 180 μL Quanti-blue substrate solution at 37° C. for 2 hrs and the absorbance was read at 620˜655 nm using a spectrophotometer. The signalling pathway that TLR7 activation leads to downstream NF-κB activation has been widely accepted, and therefore similar reporter assay was modified for evaluating TLR7 antagonist.

[1] abbreviates: HEK293-Blue-hTLR-7 cells, R848 ligand, 20 hrs incubation, read-out: TLR7 IC50.

The structures appear in SMILES notation. Where two headings read alike, the source gives them in different places.

This passage reports IC50 results from US12252484B2, “Pyrazolopyridine compounds for the treatment of autoimmune disease” (Hoffmann-La Roche Inc., priority 2018, dated 2025).

As usually defined, the IC50 is the concentration at which inhibition is half-maximal. In the case of `C[C@@H]1CN(c2ccc(C#N)n3nccc23)C[C@H](C(=O)NC(C)(C)CO)O1` [Example 16, (2R,6R)-4-(7-cyanopyrazolo[1,5-a]pyridin-4-yl)-N-(2-hydroxy-1,1-dimethyl-ethyl)-6-methyl-morpholine-2-carboxamide], the IC50 under setting [1] came out at 460 nM.
Same read-out and setting: for `C[C@@H]1CN(c2ccc(C#N)n3nccc23)C[C@H](C(=O)NCC(C)(C)CN)O1` [Example 39, (2R,6R)-N-(3-amino-2,2-dimethyl-propyl)-4-(7-cyanopyrazolo[1,5-a]pyridin-4-yl)-6-methyl-morpholine-2-carboxamide] the value was 30 nM; for `C[C@@H]1CN(c2ccc(C#N)n3nccc23)C[C@H](C(=O)NC2CCN(C)CC2)O1` [Example 1, (2R,6R)-4-(7-cyanopyrazolo[1,5-a]pyridin-4-yl)-6-methyl-N-(1-methyl-4-piperidyl)morpholine-2-carboxamide], 17 nM; for `C[C@@H]1CN(c2ccc(C#N)n3nccc23)C[C@H](C(=O)NC2CC3(CNC3)C2)O1` [Example 3, (2R,6R)-N-(2-azaspiro[3.3]heptan-6-yl)-4-(7-cyanopyrazolo[1,5-a]pyridin-4-yl)-6-methyl-morpholine-2-carboxamide], 160 nM.
`CCC(O)CNC(=O)[C@H]1CN(c2ccc(C#N)n3nccc23)C[C@@H](C)O1` (stereo partly drawn) [Example 13, (2R,6R)-4-(7-cyanopyrazolo[1,5-a]pyridin-4-yl)-N-(2-hydroxybutyl)-6-methyl-morpholine-2-carboxamide]: the 50% inhibitory concentration (IC50) under setting [1] stood at 490 nM.
On the same count and under the same terms, for `C[C@@H]1CN(c2ccc(C#N)n3nccc23)C[C@H](C(=O)NCC2CN(C)CCO2)O1` (stereo partly drawn) [Example 7, (2R,6R)-4-(7-cyanopyrazolo[1,5-a]pyridin-4-yl)-6-methyl-N-[(4-methylmorpholin-2-yl)methyl]morpholine-2-carboxamide] the value was 67 nM; for `C[C@@H]1CN(c2ccc(C#N)n3nccc23)C[C@H](C(=O)NC2C3CNCC2COC3)O1` (stereo partly drawn) [Example 27, (2R,6R)-4-(7-cyanopyrazolo[1,5-a]pyridin-4-yl)-6-methyl-N-(3-oxa-7-azabicyclo[3.3.1]nonan-9-yl)morpholine-2-carboxamide], 63 nM; for `C[C@@H]1CN(c2ccc(C#N)n3ncc(F)c23)C[C@H](C(=O)NC2CCN(C)CC2)O1` [Example 47, (2R,6R)-4-(7-cyano-3-fluoro-pyrazolo[1,5-a]pyridin-4-yl)-6-methyl-N-(1-methyl-4-piperidyl)morpholine-2-carboxamide], 8 nM.
The same measure, in the same setting: as for `C[C@@H]1CN(c2ccc(C#N)n3nccc23)C[C@H](C(=O)NC2CCOCC2)O1` [Example 4, (2R,6R)-4-(7-cyanopyrazolo[1,5-a]pyridin-4-yl)-6-methyl-N-tetrahydropyran-4-yl-morpholine-2-carboxamide], the figure is 410 nM.
On the same count and under the same terms, as for `C[C@@H]1CN(c2ccc(C#N)n3nccc23)C[C@H](C(=O)NC2C3CCCC2CNC3)O1` (stereo partly drawn) [Example 37, (2R,6R)-N-(3-azabicyclo[3.3.1]nonan-9-yl)-4-(7-cyanopyrazolo[1,5-a]pyridin-4-yl)-6-methyl-morpholine-2-carboxamide], the figure is 9 nM; as for `C[C@@H]1CN(c2ccc(C#N)n3nccc23)C[C@H](C(=O)N[C@H]2CC[C@H](O)CC2)O1` [Example 21, Trans-(2R,6R)-4-(7-cyanopyrazolo[1,5-a]pyridin-4-yl)-N-(4-hydroxycyclohexyl)-6-methyl-morpholine-2-carboxamide], 420 nM; as for `C[C@H]1C[C@@H](NC(=O)[C@H](C)N)CN(c2ccc(C#N)n3nccc23)C1` [Example 44, (2S)-2-amino-N-[(3R,5S)-1-(7-cyanopyrazolo[1,5-a]pyridin-4-yl)-5-methyl-3-piperidyl]propanamide], 64 nM.
For `C[C@@H]1CN(c2ccc(C#N)n3nccc23)C[C@H](C(=O)NCC2CNCC2(F)F)O1` (stereo partly drawn) [Example 18, (2R,6R)-4-(7-cyanopyrazolo[1,5-a]pyridin-4-yl)-N-[(4,4-difluoropyrrolidin-3-yl)methyl]-6-methyl-morpholine-2-carboxamide], under setting [1], the IC50 is 55 nM.
On to `C[C@@H]1CN(c2ccc(C#N)n3nccc23)C[C@H](C(=O)NC23CC4CC(CC(C4)C2)C3)O1` [Example 12, (2R,6R)-N-(1-adamantyl)-4-(7-cyanopyrazolo[1,5-a]pyridin-4-yl)-6-methyl-morpholine-2-carboxamide], for which, under setting [1], the IC50 came to 210 nM.
Take `C[C@@H]1CN(c2ccc(C#N)n3nccc23)C[C@H](C(=O)NC2CC3CCCC(C2)N3C)O1` (stereo partly drawn) [Example 35, (2R,6R)-4-(7-cyanopyrazolo[1,5-a]pyridin-4-yl)-6-methyl-N-(9-methyl-9-azabicyclo[3.3.1]nonan-3-yl)morpholine-2-carboxamide]: inhibition was half-maximal at 4 nM (IC50).
As to `C[C@@H]1CN(c2ccc(Cl)n3nccc23)C[C@H](C(=O)NC2CCN(C)CC2)O1` [Example 38, (2R,6R)-4-(7-chloropyrazolo[1,5-a]pyridin-4-yl)-6-methyl-N-(1-methyl-4-piperidyl)morpholine-2-carboxamide], under setting [1], the half-inhibitory concentration (IC50) is 28 nM.
For the compound `C[C@@H]1CN(c2ccc(C#N)n3nccc23)C[C@H](C(=O)N[C@H]2CC[C@@H](O)CC2)O1` [Example 20, Cis-(2R,6R)-4-(7-cyanopyrazolo[1,5-a]pyridin-4-yl)-N-(4-hydroxycyclohexyl)-6-methyl-morpholine-2-carboxamide], the concentration for half-maximal inhibition (IC50) under setting [1] came to 350 nM.
`C[C@@H]1CN(c2ccc(C#N)n3nccc23)C[C@H](C(=O)NC2CCNC2)O1` (stereo partly drawn) [Example 25, (2R,6R)-4-(7-cyanopyrazolo[1,5-a]pyridin-4-yl)-6-methyl-N-pyrrolidin-3-yl-morpholine-2-carboxamide]: the 50% inhibitory concentration (IC50) under setting [1] worked out at 150 nM.
Same read-out and setting: for `C[C@H]1C[C@@H](NCC#N)CN(c2ccc(C#N)n3nccc23)C1` [Example 46, 4-[(3R,5S)-3-(cyanomethylamino)-5-methyl-1-piperidyl]pyrazolo[1,5-a]pyridine-7-carbonitrile] the value was 170 nM; for `C[C@@H]1CN(c2ccc(C#N)n3nccc23)C[C@H](C(=O)NC2CC3CCC2CN3C)O1` (stereo partly drawn) [Example 34, (2R,6R)-4-(7-cyanopyrazolo[1,5-a]pyridin-4-yl)-6-methyl-N-(2-methyl-2-azabicyclo[2.2.2]octan-5-yl)morpholine-2-carboxamide], 10 nM.
Still for that read-out and setting: as for `C[C@@H]1CN(c2ccc(C#N)n3nccc23)C[C@H](C(=O)NC(C)(C)CN)O1` [Example 41, (2R,6R)-N-(2-amino-1,1-dimethyl-ethyl)-4-(7-cyanopyrazolo[1,5-a]pyridin-4-yl)-6-methyl-morpholine-2-carboxamide], the figure is 46 nM; as for `C[C@@H]1CN(c2ccc(C#N)n3nccc23)C[C@H](C(=O)NC2C3CNC[C@@H]32)O1` (stereo partly drawn) [Example 31, Trans-(2R,6R)-N-(3-azabicyclo[3.1.0]hexan-6-yl)-4-(7-cyanopyrazolo[1,5-a]pyridin-4-yl)-6-methyl-morpholine-2-carboxamide], 50 nM; as for `C[C@@H]1CN(c2ccc(C#N)n3nccc23)C[C@H](C(=O)NC2CC3COCC(C2)N3)O1` (stereo partly drawn) [Example 22, Endo-(2R,6R)-4-(7-cyanopyrazolo[1,5-a]pyridin-4-yl)-6-methyl-N-[3-oxa-9-azabicyclo[3.3.1]nonan-7-yl]morpholine-2-carboxamide], 10 nM.
